This experiment has as its system glucocorticoid receptor. In words: Glucocorticoid receptor cell assays (agonist activity in one or more of the above assays). The format is cell-based. Particulars: assay not specified. How it is done: B. Glucocorticoid Receptor Cell Assays
1. Induction of Aromatase in Fibroblasts (Cell Assay for Transactivation)
Dexamethasone, a synthetic ligand to the glucocorticoid receptor (GR), induces expression of aromatase in human foreskin fibroblast cells. The activity of aromatase is measured by the conversion of testosterone to estradiol in culture media.
Human foreskin fibroblast cells (ATCC Cat. No. CRL-2429, designation CCD112SK) are plated on 96 well plates at 50,000 cells per well 5 days before use, in Iscove's Modified Dulbecco's Media (GibcoBRL Life Technologies Cat No. 12440-053) supplemented with 10% charcoal filtered FBS (Clonetech Cat No. SH30068) and Gentamycin (GibcoBRL Life Technologies Cat. No. 15710-064). On the day of the experiment, the media in the wells is replaced with fresh media. Cells are treated with test compounds to final concentrations of 10^−5 M to 10^−8 M, and testosterone to a final concentration of 300 ng/mL. Each well has a total volume of 100 μL. Samples are made in duplicates. Control wells include: (a) wells that receive testosterone only, and (b) wells that receive testosterone plus 2 μM of dexamethasone to provide maximum induction of aromatase. Plates are incubated at 37° C. overnight (15 to 18 hours), and supernatants are harvested at the end of incubation. Estradiol in the supernatant is measured using ELISA kits for estradiol (made by ALPCO, obtained from American Laboratory Products Cat. No. 020-DR-2693) according to the manufacture's instruction. The amount of estradiol is inversely proportional to the ELISA signals in each well. The extent of aromatase induction by test compounds is expressed as a relative percentage to dexamethasone. EC50 values of test compounds are derived by non-linear curve fitting.
2. Inhibition of IL-6 Production in Fibroblasts (Cell Assay for Transrepression)
Human foreskin fibroblast cells produce IL-6 in response to stimulation by pro-inflammatory cytokine IL-1.
Human foreskin fibroblast cells (ATCC Cat. No. CRL-2429) are plated on 96 well plates at 5,000 cells per well the day before use, in Iscove's Modified Dulbecco's Media (GibcoBRL Life Technologies Cat. No. 12440-053) supplemented with 10% charcoal filtered FBS (Clonetech Cat. No. SH30068) and Gentamycin (GibcoBRL Life Technologies Cat. No. 15710-064). On the next day, media in the wells is replaced with fresh media. […] IL-6 levels in the supernatants are determined by the ELISA kits for IL-6 (MedSystems Diagnostics GmbH, Vienna, Austria, Cat. No. BMS213TEN) according to manufacture's instructions. […]
Evaluation of agonist or antagonist activity of compounds binding to the glucocorticoid receptor may be determined by any of the assays. […]

In the case of `Cc1cc(C)c(S(=O)(=O)NC(Cc2c[nH]c3ccccc23)C(F)(F)F)c(C)c1` (stereo not shown) [2,4,6-Trimethyl-N-[2,2,2-trifluoro-1-(1H-indol-3-ylmethyl)ethyl]benzenesulfonamide], the “activity as an agonist of the glucocorticoid receptor function” value is on record as “activity as an agonist”.
`Cc1cc(C)c(S(=O)(=O)NC(Cc2c[nH]c3ccc(C)cc23)C(F)(F)F)c(C)c1` (stereo not shown) [2,4,6-Trimethyl-N-[2,2,2-trifluoro-1-(5-methyl-1H-indol-3-ylmethyl)ethyl]benzenesulfonamide]: the “activity as an agonist of the glucocorticoid receptor function” value is reported as “activity as an agonist”.
For `Nc1cc(Cl)cc(Cl)c1S(=O)(=O)NC(Cc1c[nH]c2ccccc12)C(F)(F)F` (stereo not shown) [2-Amino-4,6-dichloro-N-[2,2,2-trifluoro-1-(1H-indol-3-ylmethyl)ethyl]benzenesulfonamide] the value was “activity as an agonist”.
The entry for `Cc1ccc2[nH]cc(CC(NS(=O)(=O)c3c(N)cc(Cl)cc3Cl)C(F)(F)F)c2c1` (stereo not shown) [2-Amino-4,6-dichloro-N-[2,2,2-trifluoro-1-(5-methyl-1H-indol-3-ylmethyl)ethyl]benzenesulfonamide] is “activity as an agonist”.
